# pIC50: −log10 of the molar value. Calls of active or inactive are those of the source. The rule behind the calls is not given here.
# Experiments:
# BGC-823 = assay: Antiproliferative activity against human BGC-823 cells assessed as inhibition of cell growth incubated for 48 hrs by MTT assay; type: functional, cell-based; details: BGC-823, 48 h
# A-375 = assay: Antiproliferative activity against human A-375 cells assessed as inhibition of cell growth incubated for 48 hrs by MTT assay; type: functional, cell-based; details: A-375, 48 h
# CWR22R = assay: Antiproliferative activity against human 22Rv1 cells assessed as inhibition of cell growth incubated for 48 hrs by MTT assay; type: functional, cell-based; details: 22Rv1, 48 h
# HCT-116 [1] = assay: Antiproliferative activity against human HCT-116 assessed as inhibition of cell viability incubated for 24 hrs by CCK8 method; type: functional, cell-based
# HCT-116 [2] = assay: Induction of apoptosis in human HCT-116 assessed as early apoptotic cells at 1 uM incubated for 24 hrs Annexin V FITC/PI double staining based flow cytometry (reference value: 1.07 %); type: functional
# HCT-116 [3] = assay: Induction of apoptosis in human HCT-116 assessed as necrotic cells at 1 uM incubated for 24 hrs Annexin V FITC/PI double staining based flow cytometry (reference value: 0.94 %); type: functional
# HCT-116 [4] = assay: Induction of apoptosis in human HCT-116 assessed as late apoptotic cells at 2 uM incubated for 24 hrs Annexin V FITC/PI double staining based flow cytometry (reference value: 8.02 %); type: functional
# HCT-116 [5] = assay: Induction of apoptosis in human HCT-116 assessed as viable cells at 1 uM pretreated with Z-VAD-FMK for 30 mins followed by compound addition and measured after 24 hrs by Annexin V-FITC/PI double staining based flow cytometry (reference value: 90.8%); type: functional; details: read-out: Activity
# HCT-116 [6] = assay: Induction of apoptosis in human HCT-116 assessed as early apoptotic cells at 1 uM pretreated with Z-VAD-FMK for 30 mins followed by compound addition and measured after 24 hrs by Annexin V-FITC/PI double staining based flow cytometry (reference value: 0.95%); type: functional
# HCT-116 [7] = assay: Induction of apoptosis in human HCT-116 assessed as necrotic cells at 1 uM pretreated with Z-VAD-FMK for 30 mins followed by compound addition and measured after 24 hrs by Annexin V-FITC/PI double staining based flow cytometry (reference value: 0.84 %); type: functional
# HCT-116 [8] = assay: Induction of apoptosis in human HCT-116 assessed as early apoptotic cells at 2 uM pretreated with Z-VAD-FMK for 30 mins followed by compound addition and measured after 24 hrs by Annexin V-FITC/PI double staining based flow cytometry (reference value: 0.95%); type: functional
# HCT-116 [9] = assay: Induction of apoptosis in human HCT-116 assessed as necrotic cells at 2 uM pretreated with Z-VAD-FMK for 30 mins followed by compound addition and measured after 24 hrs by Annexin V-FITC/PI double staining based flow cytometry (reference value: 0.84%); type: functional
# HCT-116 [10] = assay: Antiproliferative activity against ATG5 knockout human HCT-116 cells assessed as inhibition of cell viability incubated for 24 hrs by CCK8 assay; type: functional, cell-based; details: HCT-116, 24 h
# HCT-116 [11] = assay: Effect on PARP expression level in p53 knockout human HCT-116 cells at 1 to 2 uM incubated for 24 hrs by Western blot analysis; type: functional, cell-based; details: dose 1-2 µM
# HCT-116 [12] = assay: Effect on caspase 3 expression level in p53 knockout human HCT-116 cells at 1 to 2 uM incubated for 24 hrs by Western blot analysis; type: functional, cell-based; details: dose 1-2 µM
# HCT-116 [13] = assay: Effect on cleaved caspase 3 expression level in p53 knockout human HCT-116 cells at 1 to 2 uM incubated for 24 hrs by Western blot analysis; type: functional, cell-based; details: dose 1-2 µM
# HCT-116 [14] = assay: Inhibition of colony formation in human HCT-116 cells assessed as reduction in number of colonies at 0.5 to 2 uM measured after 24 hrs by crystal violet staining based analysis; type: functional, cell-based; details: dose 0.5-2 µM
# CT26 [15] = assay: Antitumor activity against mouse CT26 cells implanted in female BALB/c mouse assessed as reduction in tumor volume at 1 to 2 mg/kg administrated once every 3 days for 18 days; type: functional, organism-based; details: dose 1-2 mg/kg, time 18.0 day
# [16] = Toxicity in female BALB/c mouse implanted with mouse CT26 cells assessed as change in kidney morphology at 1 to 2 mg/kg administrated once every 3 days for 18 days by H&E staining based analysis; type: organism-based; details: in vivo, 432 h, dose 1-2 mg/kg, time 18 day
# HCT-116 [17] = assay: Inhibition of cell migration in human HCT-116 cells at 1 to 2 uM incubated for 24 hrs by cell scratch assay; type: functional, cell-based; details: dose 1-2 µM
# HCT-116 [18] = assay: Induction of morphological changes in human HCT-116 cells assessed as appearance of rounder cells at 0.5 to 2 uM by microscopic analysis; type: functional, cell-based; details: dose 0.5-2 µM
# HCT-116 [19] = assay: Induction of morphological changes in human HCT-116 cells assessed as decrease in adherence to culture dish at 0.5 to 2 uM by microscopic analysis; type: functional, cell-based; details: dose 0.5-2 µM
# HCT-116 [20] = assay: Induction of apoptosis in human HCT-116 cells assessed as effect on cleaved PARP expression level at 0.5 to 2 uM incubated for 24 hrs by Western blot analysis; type: functional, cell-based; details: dose 0.5-2 µM
# HCT-116 [21] = assay: Effect on C-PARP expression level in Bax knockout human HCT-116 cells at 1 to 2 uM incubated for 24 hrs by Western blot analysis; type: functional, cell-based; details: dose 1-2 µM
# HCT-116 [22] = assay: Induction of autophagy in human HCT-116 cells transfected with mRFP-GFP-LC3B assessed as autophagolysosome formation by measuring decrease in GFP fluorescence at 0.5 to 2 uM incubated for 24 hrs by DAPI staining based fluorescence confocal microscopic analysis; type: functional, cell-based; details: dose 0.5-2 µM
# HCT-116 [23] = assay: Induction of autophagy in human HCT-116 cells transfected with mRFP-GFP-LC3B assessed as autophagolysosome formation by measuring increase in mRFP to GFP fluorescence ratio at 0.5 to 2 uM incubated for 24 hrs by DAPI staining based fluorescence confocal microscopic analysis; type: functional, cell-based; details: dose 0.5-2 µM
# HCT-116 [24] = assay: Induction of autophagy in human HCT-116 cells transfected with tandem mRFP-GFP-LC3 plasmid assessed as reduction in p62 expression by Western blot analysis; type: functional, cell-based; details: time 3-48 hrs
# HCT-116 [25] = assay: Induction of autophagy in human HCT-116 cells transfected with tandem mRFP-GFP-LC3 plasmid assessed as increase in LC3-II accumulation by Western blot analysis; type: functional, cell-based; details: time 3-48 hrs
# HCT-116 [26] = assay: Effect on apoptosis pathway related genes expression in human HCT-116 cells at 1 uM incubated for 24 hrs by GSVA enrichment analysis; type: functional, cell-based
# HCT-116 [27] = assay: Upregulation of autophagy pathway related genes expression in human HCT-116 cells at 1 uM incubated for 24 hrs by heat map analysis; type: functional, cell-based
# HCT-116 [28] = assay: Induction of autophagy in ATG7 knockout human HCT-116 cells assessed as increase in LC3-II expression at 1 to 2 uM incubated for 24 hrs by Western blot analysis; type: functional, cell-based; details: dose 1-2 µM
# HCT-116 [29] = assay: Inhibition of colony formation in wildtype human HCT-116 cells assessed as reduction in number of colonies at 1 to 4 uM measured after 24 hrs by crystal violet staining based analysis; type: functional, cell-based; details: dose 1-4 µM
# CT26 [30] = assay: Antitumor activity against mouse CT26 cells implanted in female BALB/c mouse assessed as reduction in tumor weight at 2 mg/kg administrated once every 3 days for 18 days relative to control; type: functional; set-up: scale not given: the % may be the effect or the level left; details: time 18 day
smiles,measurement,setting,value
CCN(CC)CCCNCc1cc2c3ccccc3n(CCCc3ccccc3)c2c(CNCCCN(CC)CC)n1,pIC50,BGC-823,5.42
same,pIC50,A-375,5.35
same,pIC50,CWR22R,5.39
same,Activity,HCT-116 [1],Dose-dependent-effect
same,pIC50,"HCT-116 [1]; HCT-116, 24 h",5.56
same,Activity,HCT-116 [2],2.19%
same,Activity,HCT-116 [3],2.02%
same,Activity,HCT-116 [4],13.9%
same,viability at 1 µM,HCT-116 [5],83.7%
same,Activity,HCT-116 [6],1.75%
same,Activity,HCT-116 [7],2.2%
same,Activity,HCT-116 [8],2.28%
same,Activity,HCT-116 [9],1.8%
same,pIC50,HCT-116 [10],5.18
same,Activity,HCT-116 [11],inactive
same,Activity,HCT-116 [12],inactive
same,Activity,HCT-116 [13],inactive
same,inhibition,HCT-116 [14],Active
same,Activity,CT26 [15],Active
same,Activity,[16],Non-toxic
same,inhibition,HCT-116 [17],Active
same,Activity,HCT-116 [18],Active
same,Activity,HCT-116 [19],Active
same,Activity,HCT-116 [20],inactive
same,Activity,HCT-116 [21],inactive
same,Activity,HCT-116 [22],Active
same,Activity,HCT-116 [23],Active
same,Activity,HCT-116 [24],Time-dependent-effect
same,Activity,HCT-116 [25],Time-dependent-effect
same,Activity,HCT-116 [26],inactive
same,Activity,HCT-116 [27],Active
same,Activity,HCT-116 [28],inactive
same,inhibition,HCT-116 [29],Active
same,Activity,CT26 [30],87.3%
